Experimental data taken from patent publication US5136093A, “Quaternized panthenol compounds and their use” (priority 1991, dated 1992).
Entries after “also recorded” stand apart in the source; their conditions may differ.

Experiments:
[1] = Compatibility with formulation ingredients; format: physicochemical; conditions: in finished cosmetic formulation
Protocol: Procedure: The water was weighed into a beaker. Each Phase A ingredient was then added to the water phase in the order listed and mixed thoroughly after the addition of each ingredient. The fragrance was dissolved in the alcohol and Phase B was added to Phase A and mixed until clear and uniform.
Procedure: Phase A was heated to 55° C. Phase B was added and mixed until uniform. Phase C ingredients were added in the order listed and mixed until uniform. When the batch cooled to 45° C., Phase E and Phase F were added and the batch was mixed until uniform. The pH was adjusted with Citric Acid. Phase H was added and the batch was mixed until uniform.
Procedure: The Siltech C-2145CG emulsion was predispersed in the Phase A water in a beaker. The Phase "B" ingredients were dissolved one at a time into the remainder of the water and mixed until clear. Phase "C" ingredients were mixed until clear and uniform. Phase "A" was added to Phase "B" with agitation. Then Phase "C" and "D" were added and the batch was mixed until uniform.
Procedure: Phase A was weighed into a beaker and was then mixed until clear and uniform. Phase B and then Phase C were added to Phase A while mixing. The batch was mixed until clear and uniform.
Procedure: Ucare Polymer JR was dispersed in the water. After the polymer was dispersed, the Methylparaben was added. Phase A was then heated to 60° C. […]

[2] = Rubine dye uptake (substantivity) on human hair swatches/tresses; conditions: for Rubine dye uptake / uptake with respect to the positive control: 50% aqueous solution (panthenol) or 50% solids aqueous solution; for Rubine dye uptake: Demeo Natural White Hair, read at 520 nm; for uptake with respect to the positive control: relative to positive control; for greater uptake than the unquaternized panthenol: human hair swatches
Description: In the following Examples, the qualitative test for measuring the substantivity of the compounds on hair was the Rubine Dye Test using Pyrazol Fast Bordeaux, as described in U.S. Pat. No. 3,769,398 to Hewitt and Crawford et al. J. Soc. Cosmet. Chem. 31, 273-278 (1980), the entire disclosures of which are incorporated herein by reference. The intensity of the residual pink color, after rinsing, on a hair swatch previously treated with the compound, is an indication of the degree of deposition of the compound onto the hair. Absence of pink color points to a lack of substantivity.
In a one liter reaction flask, fitted with a stirrer, thermometer reflux condenser, heating mantle and a feed funnel, 205 grams of deionized water was charged. 205 grams (1 mole) of d,l-panthenol was charged in the water and stirred until dissolved. In a separate, stirred, one liter vessel, 376 grams (1 mole) of 50% aqueous QUAB 188 (3-Chloro-2-hydroxypropyl trimethylammonium chloride) was reacted with approximately 80 grams (1 mole) of 50% aqueous sodium hydroxide solution, to form a solution of QUAB 151 (2, 3-Epoxypropyl trimethyl ammonium chloride), to a pH of ^~ 9.5. The batch was heated to 50°-60° C., and the QUAB 151 solution was added to the panthenol solution through the feed funnel. The pH of the reaction mixture was checked, and adjusted to ^~ 9.5 with a small additional amount of 50% sodium hydroxide solution, as required. The batch was then agitated at 50°-60° C. for a four hour period to assure complete reaction. The pH of the batch was then adjusted to 6.5-8.0 with a small amount of lactic acid. The resultant product was a clear yellow solution, containing approximately 50% of trimethyl quaternized panthenol.
In a two liter reaction flask, fitted with a stirrer, thermometer, reflux condenser, heating mantle and a feed funnel, 205 grams of deionized water was charged. 205 grams (1 mole) of d,l- panthenol was charged into the water and stirred until dissolved. In a separate stirred one liter vessel, 852 grams (1 mole) of 50% aqueous QUAB 426 (3-Chloro-2-hydroxypropyl stearyl dimethylammonium chloride) was reacted with approximately 80 grams (1 mole) of 50% aqueous sodium hydroxide solution, to form a solution of QUAB 393 (2,3-Epoxypropyl stearyl dimethyl ammonium chloride), to a pH of ^~ 9.5. The batch was heated to 50°-60° C., and the QUAB 393 solution was added to the panthenol solution through the feed funnel. The pH of the reaction mixture was checked, and adjusted to ^~ 9.5 with a small additional amount of 50% sodium hydroxide solution, as required. The batch was then agitated at 50°-60° C. for a four hour period to assure complete reaction. The pH of the batch was then adjusted to 6.5-8.0 with a small amount of lactic acid. The resultant product was a clear yellow solution, containing approximately 50% solids, of which approximately 43% was stearyl dimethyl quaternized panthenol.
Rubine Dye uptake as a measure of substantivity.
Four tresses of Demeo Natural White Hair weighing approximately 0.5 grams each were immersed in 15 grams of the appropriate solution (i.e. positive control, negative control and test samples) for a period of not less than 5 minutes. Each tress was then rinsed five times with 100 ml of water at 120° F.
The tresses were then immersed in a solution of fast Rubine dye for 15 minutes, rinsed five times with 100 ml of water at 105° F., then air dried overnight on filter paper. Each tress was weighed directly into a tared beaker. The dye was stripped from the hair and the solution then brought to the volume with deionized water. The transmission of each sample was then read at 520 nm and its absorbance adjusted to the weight of the hair sample. The dye concentration was calculated from a standard calibration curve.

[3] = aqueous solutions; hydrolysis increases as pH varies from optimum; cited from earlier work

| SMILES | Rubine dye uptake [2] | uptake with respect to the positive control [2] | optimum pH for stability [3] | further results |
| --- | --- | --- | --- | --- |
| CCCCCCCCCCCCCCCCCC[N+](C)(C)CC(O)COCC(C)(C)C(O)C(=O)NCCCO (racemic) [stearyl dimethyl quaternized panthenol] | 66.30 mg of dye/50 gm of hair | 46.74% |  | compatibility with other ingredients [1]: compatible with the anionic surfactants that make up the shampoo; also recorded: compatible with the cationic silicone emulsion (Siltech E-2145CG) and with the hair fixative polymer; also recorded: compatible with the hair fixative polymer and with the ethanol; also recorded: compatible with the other cationic ingredients in the formula; also recorded: compatible with all of the nonionic ingredients in the formula; also recorded: compatible with the anionic soaps and surfactants in the Neutrogena™ soap bar; greater uptake than the unquaternized panthenol, adjusted for concentration of active material ([2]; 50% solids aqueous solution vs panthenol 50% aqueous solution, adjusted for concentration of active material): ~31%; greater uptake than the unquaternized panthenol ([2]; versus a 50% panthenol solution, not adjusted for active material): ~27% |
| CC(C)(CO)C(O)C(=O)NCCCO (stereo not shown) [Panthenol] | 52.35 mg of dye/50 gm of hair | 36.91% |  |  |
| CC(C)(COCC(O)C[N+](C)(C)C)C(O)C(=O)NCCCO (racemic) [trimethyl quaternized panthenol] |  |  |  | greater uptake than the unquaternized panthenol ([2]; versus panthenol solution of comparable concentration): ~7% |
| CC(C)(CO)[C@@H](O)C(=O)NCCCO [d-Panthenol] |  |  | approximately 6 |  |
| CC(C)(CO)C(O)C(=O)NCCCO (racemic) [d,l-Panthenol] |  |  | approximately 6 |  |
